The target in data set [1] is T1, P450 17A1 R358Q variant (Homo sapiens, UniProt P05093, R358Q).
T1 sequence (P05093 1-508 R358Q): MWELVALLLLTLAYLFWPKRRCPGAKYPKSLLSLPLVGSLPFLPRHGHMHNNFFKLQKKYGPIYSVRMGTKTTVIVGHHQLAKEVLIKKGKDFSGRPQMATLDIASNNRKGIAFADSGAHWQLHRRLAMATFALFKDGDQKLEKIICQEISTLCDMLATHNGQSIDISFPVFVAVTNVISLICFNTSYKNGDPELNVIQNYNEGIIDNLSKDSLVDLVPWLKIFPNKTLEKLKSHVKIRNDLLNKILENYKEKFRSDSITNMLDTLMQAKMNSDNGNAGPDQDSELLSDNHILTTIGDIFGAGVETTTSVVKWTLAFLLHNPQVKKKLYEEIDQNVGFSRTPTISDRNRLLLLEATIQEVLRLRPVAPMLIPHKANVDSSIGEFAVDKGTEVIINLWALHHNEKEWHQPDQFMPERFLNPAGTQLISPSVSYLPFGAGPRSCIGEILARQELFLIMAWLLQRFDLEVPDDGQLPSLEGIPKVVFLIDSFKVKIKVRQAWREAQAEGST
Nature of the data set: Steady-state kinetics of steroid 17α-hydroxylation and lyase reactions, reconstituted system. The protocol: (§1) P450 catalytic activity assays to measure steroid hydroxylation and lyase reactions were carried out as described previously ([23], [37], [64]).
(§2) The reactions were initiated by adding an NADPH-regenerating system (final concentrations of 15 mM glucose 6-phosphate, 1.5 mM NADP^+, and 1 IU ml^−1 glucose 6-phosphate dehydrogenase) ([75]) and terminated by quenching and extracting with 2.0 ml CH2Cl2. Aliquots of the organic phases were dried and then dissolved in 100 μl of a CH3CN/H2O (1:1, v/v) mixture. […] The extraction procedure was then repeated, and the (Δ^4) reaction products were analyzed in a Waters Acquity UPLC system using a BEH C18 octadecylsilane column (2.1 mm × 100 mm, 1.7 μm). The reaction products were resolved using a mobile phase composed of solvents A (70% CH3OH, 30% H2O, v/v) and B (CH3CN), at a flow rate of 0.2 ml min^−1. […] Steady-state kinetic parameters were estimated using nonlinear regression of hyperbolic fits in GraphPad Prism software, with equations used for kcat and the specificity constant kcat/Km ([76]): Y = (ksp ∗ X)/(1 + (ksp ∗ X/kcat)) and then deriving Km by division.

The target of data set [2] is T2, P450 17A1 R347H variant (Homo sapiens, UniProt P05093, R347H).
T2 sequence (P05093 1-508 R347H): T1 sequence (P05093 1-508 R358Q) with R347H, Q358R
Described as above. The protocol:
as §1, §2

The target of data set [3] is T3, P450 17A1 E305G variant (Homo sapiens, UniProt P05093, E305G).
T3 sequence (P05093 1-508 E305G): T1 sequence (P05093 1-508 R358Q) with E305G, Q358R
The data set is described as above. The protocol:
as §1, §2

In data set [4] the target is T4, WT P450 17A1 (Homo sapiens, UniProt P05093).
T4 sequence (P05093 1-508): T1 sequence (P05093 1-508 R358Q) with Q358R
Briefly: Substrate-binding spectral titration (type I, ΔA388-A423). The protocol: The purified enzymes were diluted in 100 mM potassium phosphate buffer (pH 7.4) and divided in two 1.0-ml glass cuvettes. Spectra (350–500 nm) were recorded using an OLIS-DW2 spectrophotometer (On-Line Instrument Systems) with subsequent additions of the substrate. Differences in the absorbance between the wavelength maximum and minimum were plotted versus the substrate concentration ([44]). Kd values were calculated using nonlinear regression analysis in GraphPad Prism software (GraphPad) and the quadratic equation: Y=B+A/2E[(Kd+E+X)−(Kd+E+X)^2−4EX], set in Prism as: Y = B + (A/2) ∗ (1/E) ∗ ((Kd + E + X)-sqrt((Kd + E + X)^ˆ2 - (4 ∗ E ∗ X))).
Figure S2. […] Increasing concentrations of substrates were added to the sample and reference cuvettes in each case.

Where [5] appears, read: lyase reaction (conversion to androstenedione or DHEA).
Where [6] appears, read: Kd of P450 17A1·substrate complex, WT, P450 1.0 µM, quadratic fit.

What is called Kd is the free concentration of one partner at which half of the binding sites on the other are occupied at equilibrium, for simple one-to-one binding.

Residue numbers refer to the chain shown, from its start. Values joined by “and” are separate entries in the source; they are usually repeats but may differ in a detail not shown here. Equal entries are not always repeated. Where two headings read alike, the source gives them in different places.

On to `CC(=O)[C@@]1(O)CCC2C3CC=C4C[C@@H](O)CC[C@]4(C)C3CC[C@@]21C` (stereo partly drawn) [17α-OH pregnenolone], for which the results for the “% WT (kcat/Km)” value in data set [1] (setting [5]), in data set [2] (setting [5]) and in data set [3] (setting [5]) were 0.6%, 1.1% and 0.7%, respectively. The Kd in data set [4] stood at 110 ± 50 nM.
Regarding `CC(=O)C1CCC2C3CC=C4C[C@@H](O)CC[C@]4(C)C3CC[C@]12C` (stereo partly drawn) [Pregnenolone], the “% WT (kcat/Km)” value in data set [1] (17α-hydroxylation) is reported as 12%; in data set [2] (17α-hydroxylation), 19%; in data set [3] (17α-hydroxylation), 0.7%. Also, the Kd in data set [4] (setting [6]) is 140 ± 60 nM.
Consider `CC(=O)[C@H]1CC[C@H]2[C@@H]3CCC4=CC(=O)CC[C@]4(C)[C@H]3CC[C@]12C` [Progesterone], for which the entries for the “% WT (kcat/Km)” value in data set [1] (17α-hydroxylation), in data set [2] (17α-hydroxylation) and in data set [3] (17α-hydroxylation) were 11%, 4% and 8%, respectively. In addition, in data set [4] (setting [6]), the equilibrium dissociation constant (Kd) is ~65 nM and 65 nM.

The values above are taken from publication PMC8080067, “Tight binding of cytochrome b5 to cytochrome P450 17A1 is a critical feature of stimulation of C21 steroid lyase activity and androgen synthesis” (The Journal of Biological Chemistry, 2021).
